Patent publication US20230265083A1, “Heterocycle CDK Inhibitors And Their Use Thereof” (Prelude Therapeutics Incorporated, priority 2020, published 2023)
pIC50: −log10 of the molar value.

Experiments:
CDK2/Cyclin A2 = target: T1, CDK2/Cyclin A2 (Homo sapiens, UniProt P24941); test: CDK2/CyclinA2 Enzymatic Activity Assay (TR-FRET); type: biochemical; conditions: ATP 1 mM, recombinant CDK2/Cyclin A2 1 nM, read-out: CDK2_A2 IC50
T1 construct: purchased ProQinase; host or cells: insect cell
Procedure: CDK2/CyclinA2 Enzymatic Activity Assay
(§1) The inhibitory activity of compounds was evaluated in vitro using TR-FRET assay with white 384-well low volume microplate (Greiner Bio-One). CDK2/Cyclin A2 catalyzed phosphorylation of peptides in the presence and absence of compounds was measured and used in IC50 determination. Recombinant protein complex CDK2/Cyclin A2, expressed from insect cell, was purchased from ProQinase. Testing compounds were dissolved in DMSO at 1 mM and tested in 9-dose IC50 mode. The reaction mixture was prepared by mixing CDK2/CyclinA2 (1 nM final), ULight-4E-BP1 (50 nM final, Perkinelmer, TRF0128-D), and ATP (1 mM final) in assay buffer (20 mM of HEPES pH 7.4, 1 mM of EGTA, 0.05% BSA, 0.005% Tween 20, and 1 mM TCEP). The compound of interest in DMSO was added to each well in 3-fold serial dilution by the dispenser (TECAN D300E) to make a 9.9 μL of the reaction mixture. After 20 minutes preincubation at room temperature, 0.1 μL MgCl2 (10 mM final) was added to initiate the reaction. Following a 45 minutes incubation at 37° C., the reaction was stopped by addition of 2 μL of quenching buffer consisting of Lance detection buffer (Perkinelmer CR97-100C), LANCE Ultra Europium-anti-P-4E-BP1 (Perkinelmer, TRF0216-D), EDTA, and incubate at room temperature for additional 60 minutes in the dark. The reaction signal was measured by Envision multimode plate reader (PerkinElmer, 2102-0010). IC50 values were determined by fitting the data to the standard 4 parameters with Hill Slope using GraphPad Prism software.

CDK4/Cyclin D1 = target: T2, CDK4/Cyclin D1 (Homo sapiens, UniProt P11802); test: CDK4/CyclinD1 Enzymatic Activity Assay (TR-FRET); type: biochemical; conditions: ATP 2 mM, recombinant CDK4/Cyclin D1 1 nM, read-out: CDK4_D1 IC50
T2 construct: purchased ProQinase; host or cells: insect cell
T2 sequence (P11802 whole entry): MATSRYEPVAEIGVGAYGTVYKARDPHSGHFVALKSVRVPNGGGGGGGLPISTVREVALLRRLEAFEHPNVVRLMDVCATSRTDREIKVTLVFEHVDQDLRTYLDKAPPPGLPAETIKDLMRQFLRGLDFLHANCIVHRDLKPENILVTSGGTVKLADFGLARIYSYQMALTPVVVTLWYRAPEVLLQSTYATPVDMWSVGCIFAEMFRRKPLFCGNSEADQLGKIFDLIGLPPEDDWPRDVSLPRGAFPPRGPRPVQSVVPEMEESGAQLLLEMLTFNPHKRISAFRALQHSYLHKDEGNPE
T2 sequence (P24385 whole entry partner): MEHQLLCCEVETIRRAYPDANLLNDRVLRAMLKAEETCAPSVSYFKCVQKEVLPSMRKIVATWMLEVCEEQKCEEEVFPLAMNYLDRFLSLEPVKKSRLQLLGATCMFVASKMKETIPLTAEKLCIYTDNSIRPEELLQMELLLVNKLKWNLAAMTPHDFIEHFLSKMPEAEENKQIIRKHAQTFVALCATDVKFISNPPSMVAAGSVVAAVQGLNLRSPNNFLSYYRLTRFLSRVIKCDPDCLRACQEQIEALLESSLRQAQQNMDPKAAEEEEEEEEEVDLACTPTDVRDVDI
Procedure: CDK4/CyclinD1 Enzymatic Activity Assay
The inhibitory activity of compounds was evaluated in vitro using TR-FRET assay with white 384-well low volume microplate (Greiner Bio-One). CDK4/Cyclin D1 catalyzed phosphorylation of peptides in the presence and absence of compounds was measured and used in IC50 determination. Recombinant protein complex CDK4/Cyclin D1, expressed from insect cell, was purchased from ProQinase. Testing compounds were dissolved in DMSO at 1 mM and tested in 9-dose IC50 mode. The reaction mixture was prepared by mixing CDK4/CyclinD1 (1 nM final), ULight-4E-BP1 (100 nM final, Perkinelmer, TRF0128-D), and ATP (2 mM final) in assay buffer (20 mM of HEPES pH 7.4, 1 mM of EGTA, 0.05% BSA, 0.005% Tween 20, and 1 mM TCEP). The compound of interest in DMSO was added to each well in 3-fold serial dilution by the dispenser (TECAN D300E) to make a 9.9 μL of the reaction mixture. After 20 minutes of preincubation at room temperature, 0.1 μL MgCl2 (10 mM final) was added to initiate the reaction. Following a 45 minutes incubation at 37° C., the reaction was stopped by the addition of 2 μL of quenching buffer consisting of Lance detection buffer (Perkinelmer CR97-100C), LANCE Ultra Europium-anti-P-4E-BP1 (Perkinelmer, TRF0216-D), EDTA, and incubate at room temperature for additional 60 minutes in the dark. The reaction signal was measured by Envision multimode plate reader (PerkinElmer, 2102-0010). IC50 values were determined by fitting the data to the standard 4 parameters with Hill Slope using GraphPad Prism software.

CDK9/Cyclin T1 = target: T3, CDK9/Cyclin T1 (Homo sapiens, UniProt P50750); test: CDK9/CyclinT1 Enzymatic Activity Assay (TR-FRET); type: biochemical; conditions: ATP 1 mM, recombinant CDK9/Cyclin T1 1 nM, read-out: CDK9_T1 IC50
T3 construct: purchased ProQinase; host or cells: insect cell
T3 sequence (P50750 whole entry): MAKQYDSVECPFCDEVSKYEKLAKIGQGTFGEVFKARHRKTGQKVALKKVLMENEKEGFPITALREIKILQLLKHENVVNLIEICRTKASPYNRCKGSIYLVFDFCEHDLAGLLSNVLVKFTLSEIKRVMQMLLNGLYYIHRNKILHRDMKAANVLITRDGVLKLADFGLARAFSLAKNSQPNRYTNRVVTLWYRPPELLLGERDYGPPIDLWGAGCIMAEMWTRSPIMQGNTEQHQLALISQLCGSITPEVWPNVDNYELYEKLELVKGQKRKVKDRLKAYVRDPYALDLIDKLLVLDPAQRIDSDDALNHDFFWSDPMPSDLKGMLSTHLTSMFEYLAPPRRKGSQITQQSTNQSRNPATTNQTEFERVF
T3 sequence (O60563 whole entry partner): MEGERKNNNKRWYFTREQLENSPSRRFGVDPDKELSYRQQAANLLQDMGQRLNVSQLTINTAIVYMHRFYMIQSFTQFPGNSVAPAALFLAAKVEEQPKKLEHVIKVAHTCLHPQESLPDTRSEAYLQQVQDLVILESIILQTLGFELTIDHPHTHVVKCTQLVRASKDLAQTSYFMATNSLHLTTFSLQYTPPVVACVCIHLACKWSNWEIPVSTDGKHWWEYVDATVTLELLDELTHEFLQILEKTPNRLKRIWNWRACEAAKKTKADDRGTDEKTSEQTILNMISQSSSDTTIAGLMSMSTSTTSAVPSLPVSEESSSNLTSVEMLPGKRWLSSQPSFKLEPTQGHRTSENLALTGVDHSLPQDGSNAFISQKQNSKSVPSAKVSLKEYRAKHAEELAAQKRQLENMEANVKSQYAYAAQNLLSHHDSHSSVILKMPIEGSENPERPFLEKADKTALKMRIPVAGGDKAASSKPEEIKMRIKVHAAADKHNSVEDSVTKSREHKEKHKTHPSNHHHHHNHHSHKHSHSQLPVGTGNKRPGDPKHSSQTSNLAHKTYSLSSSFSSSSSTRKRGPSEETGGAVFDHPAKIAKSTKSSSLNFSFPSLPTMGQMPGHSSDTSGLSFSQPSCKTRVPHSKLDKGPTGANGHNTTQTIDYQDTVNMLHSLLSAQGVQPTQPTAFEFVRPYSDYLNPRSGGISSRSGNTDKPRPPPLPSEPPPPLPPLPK
Procedure: CDK9/CyclinT1 Enzymatic Activity Assay
as §1, with “(Greiner Bio-One). CDK9/Cyclin T1 catalyzed phosphorylation” for “(Greiner Bio-One). CDK2/Cyclin A2 catalyzed phosphorylation”, “protein complex CDK9/Cyclin T1, expressed from” for “protein complex CDK2/Cyclin A2, expressed from”, “by mixing CDK9/CyclinT1 (1 nM” for “by mixing CDK2/CyclinA2 (1 nM”, “20 minutes of preincubation at” for “20 minutes preincubation at”, “stopped by the addition of” for “stopped by addition of”

H929 cells = test: CellTiter-Glo Protocol (Proliferation); type: cell-based; conditions: Homo sapiens, NCI-H929, 24 hours, read-out: PROLIFERATION_CTG_H929 IC50
Procedure: CellTiter-Glo® Protocol (Proliferation)
Dispense 10 μL aliquot of prepared H929 cells (1:1 ratio of cells: Trypan Blue (#1450013, Bio-Rad)) onto cell counting slide (#145-0011, Bio-Rad) and obtain cell density and cell viability using a cell counter (TC20, Bio-Rad). Remove appropriate volume of resuspended cells from culture flask to accommodate 4000 cells/well at 10 μL/well. Transfer H929 cells to 50 mL conical (#430290, Corning). Spin down at 1000 rpm for 5 min. using a tabletop centrifuge (SPINCHRON 15, Beckman). Discard supernatant and resuspend cell pellet in modified RPMI 1640 (#10-040-CV, Corning) cell culture media containing 10% FBS (F2422-500ML, Sigma), sodium pyruvate (100 mM) (#25-000-CL, Corning), HEPES buffer (1M) (#25-060-CL, Corning) and glucose (200 g/L) (A24940-01, Gibco) to a cell density of 400,000 cells/mL. Dispense 10 μL of resuspended H929 cells per well in 384-well small volume TC treated plate (#784080, Greiner Bio-one) using standard cassette (#50950372, Thermo Scientific) on Multidrop Combi (#5840310, Thermo Scientific) in laminar flow cabinet. Dispense compounds onto plates using a digital liquid dispenser (D300E, Tecan). Incubate plates in humidified tissue culture incubator at 37° C. for 24 hours. Add 10 μL of prepared CellTiTer-Glo® detection buffer (G7570, Promega) to each well of 384-well plate using small tube cassette (#24073295, Thermo Scientific) on Combi multi-drop, incubate at RT for 30-60 min. Read plates with a microplate reader (PheraStar, BMG Labtech) using 384 well luminescence mode. See Table B (Proliferation_CTG_H929).

Row | pIC50 (CDK2/Cyclin A2) | pIC50 (CDK4/Cyclin D1) | pIC50 (CDK9/Cyclin T1) | pIC50 (H929 cells) | Structure (SMILES)
1 | < 6.00 | < 6.00 | 6.70 to 7.70 | 6.00 to 6.70 | Cc1cnc(NC(=O)[C@H]2CCC[C@@H](NC(=O)CC#N)C2)cc1-c1cccc2c1OCCN2 [Example 8, (1S,3R)-3-(2-cyanoacetamido)-N-(4-(3,4-dihydro-2H-benzo[b][1,4]oxazin-8-yl)-5-methylpyridin-2-yl)cyclohexane-1-carboxamide]
2 | < 6.00 | < 6.00 | 6.70 to 7.70 | 6.00 to 6.70 | Cc1cnc(NC(=O)[C@H]2CCC[C@@H](NC(=O)CC#N)C2)cc1-c1cccc2c1OCC(C)(C)N2 [Example 7, (1S,3R)-3-(2-cyanoacetamido)-N-(4-(3,3-dimethyl-3,4-dihydro-2H-benzo[b][1,4]oxazin-8-yl)-5-methylpyridin-2-yl)cyclohexane-1-carboxamide]
3 | 6.00 to 6.70 | 6.70 to 7.70 | > 7.70 |  | N#CCC(=O)N[C@@H]1CCC[C@H](C(=O)Nc2cc(-c3cc(F)cc4c3OCCN4)c(Cl)cn2)C1 [Example 12, (1S,3R)—N-(5-chloro-4-(6-fluoro-3,4-dihydro-2H-benzo[b][1,4]oxazin-8-yl)pyridin-2-yl)-3-(2-cyanoacetamido)cyclohexane-1-carboxamide]
4 | < 6.00 | 6.70 to 7.70 | > 7.70 | 6.70 to 7.70 | CC(=O)N[C@@H]1CCC[C@H](C(=O)Nc2cc(-c3cccc4c3CC(C)(C)N4)c(Cl)cn2)C1 [Example 5, (1S,3R)-3-acetamido-N-(5-chloro-4-(2,2-dimethylindolin-4-yl)pyridin-2-yl)cyclohexane-1-carboxamide]
